Reference: patent US20240287172A1, “PROTEIN BINDERS TO IRHOM2 EPITOPES” (SCIRHOM GMBH, priority 2019, published 2024)

Key:
[1] = test system: PMA-induced release of endogenous HB-EGF from PBMCs from patients suffering from rheumatoid arthritis; assay: ELISA-based HB-EGF release assay, PMA-induced, PBMCs from RA-patients; format: cell-based; settings: PBMC; PMA 25 ng/ml, 6 hours; chimeric antibodies (CHO) and human IgG at 1 μg/ml; Batimastat at 10 μM
Procedure: In brief, on day 1, Nunc black MaxiSorp® 96-well plates (Thermo Fisher Scientific, USA) were coated overnight with 100 μl per well of rat anti-human HB-EGF capture antibody (provided as part of the DuoSet ELISA kit) at 2 μg/ml TBS at 4° C. On day 2, the capture antibody solution was removed and MaxiSorp® plates were blocked with 300 μl per well of TBS, 1% BSA at room temperature for 3 hours. Meanwhile, 80,000 PBMC from patients suffering from rheumatoid arthritis (STEMCELL Technologies, Canada) cells in 80 μl of normal growth medium were seeded in each well of Greiner CELLSTAR V-bottom 96-well plates (Thermo Fisher Scientific, USA) and pre-incubated with 20 μl per well of standard growth medium supplemented with Batimastat (BB94, Abcam, UK) at 50 μM as positive control (for a final concentration of 10 μM in the resulting 100 μl sample volume), human IgG antibody (Thermo Fisher Scientific, USA) at 5 μg/ml as isotype control (for a final concentration of 1 μg/ml in the resulting 100 μl sample volume) or antibodies of the invention at 5 μg/ml (for a final concentration of 1 μg/ml in the resulting 100 μl sample volume) at 37° C., 5% CO2 for 30 minutes. […] Using an infinite M1000 (Tecan Group, Switzerland) microplate reader, the fluorescence of each well was collected at an excitation wavelength of 435 nm and an emission wavelength of 555 nm.

[2] = test system: PMA-induced release of endogenous TGFα from human PC3 prostate cancer cells; assay: ELISA-based TGFα release assay, PMA-induced, PC3 cells; format: cell-based; settings: PC-3, PMA 25 ng/ml, 2 hours, recombinant murine antibodies and IgG at 1 μg/ml, Batimastat at 10 μM
Procedure: In brief, on day 1, Nunc black MaxiSorp® 96-well plates (Thermo Fisher Scientific, USA) were coated overnight with 100 μl per well of goat anti-human TGFα capture antibody (provided as part of the DuoSet ELISA kit) at 0.4 μg/ml TBS at 4° C. On day 2, the capture antibody solution was removed and MaxiSorp® plates were blocked with 300 μl per well of TBS, 1% BSA at room temperature for 3 hours. Meanwhile, 100,000 PC3 (European Collection of Authenticated Cell Cultures, UK) cells in 80 μl of normal growth medium were seeded in each well of F-bottom 96-well cell culture plates (Coming, USA) and pre-incubated with 20 μl per well of OptiMEM medium supplemented with Batimastat (BB94, Abcam, UK) at 50 μM as positive control (for a final concentration of 10 μM in the resulting 100 μl sample volume), mouse IgG antibody (Thermo Fisher Scientific, USA) at 5 μg/ml as isotype control (for a final concentration of 1 μg/ml in the resulting 100 μl sample volume) or antibodies of the invention at 5 μg/ml (for a final concentration of 1 μg/ml in the resulting 100 μl sample volume) at 37° C., 5% CO2 for 30 minutes. In case of stimulation controls, 20 μl of OptiMEM medium without test articles were added. […] Using an infinite M1000 (Tecan Group, Switzerland) microplate reader, the fluorescence of each well was collected at an excitation wavelength of 435 nm and an emission wavelength of 555 nm.

CNC(=O)[C@H](Cc1ccccc1)NC(=O)[C@H](CC(C)C)[C@H](CSc1cccs1)C(=O)NO [Batimastat]
inhibition at 10 µM [1]: 102% | inhibition at 10 µM [2]: 99.1%
